# Source: US20040024048A1, “Medicaments for treating dementia” (priority 2000, published 2004)
# Read-outs that look alike come from different tables or passages of the source.
# How the values were obtained:
# [1] = test system: patients with clinical manifestations of dementing deficits; assay: mini-mental state examination (MMSE) in dementia patients; format: in vivo, human
# From the text: The mini-mental state examination test was published by Marshall Folstein in 1975 and was originally intended as a test to differentiate cognitive functions (Folstein et al., 1975). Because the test is short, it is now used as screening test in studies for establishing inclusion/exclusion criteria. The test covers orientation, attention, short- and medium-term memory, word-finding, reading, writing, and in addition a command to perform an action must be obeyed. The tasks in the test are designed so that they can normally be solved without difficulty by people without cognitive impairment. The maximum score achievable is 30, and a score of less than 24 indicates a dementing disorder. The following levels are generally differentiated (Zec et al., 1992).
# (§1) Patients with clinical manifestations of dementing deficits and suspected brain damage based on Alzheimer's dementia or vascular dementia or a similar suspected diagnosis were treated with medicines to improve the symptomatic cognitive deficits (nootropics). Since all the active ingredients currently available in the dementia sector provide only marginal improvements, it was justified, despite the disappointing first study, to administer α-lipoic acid in high dose to patients on the basis of this basic therapy. The effect of the therapy was assessed using standardized clinical dementia assessment scales which are usual now and which are distinguished by high reliability. This comprises the mini-mental state examination (MMSE) or the Alzheimer's disease assessment scale (ADAS). The advantage of these clinical instruments is that the severity of the dementia can be established reliably, irrespective of the organic cerebral basis, which is usually not unambiguous, of the clinical picture of dementia.
# [2] = test system: patients with clinical manifestations of dementing deficits; assay: Alzheimer's disease assessment scale (ADAS / ADAS-Cog) in dementia patients; format: in vivo, human
# From the text: A further test for establishing the neuropsychological status of a dementia patient is the “Alzheimer's Disease Assessment Scale-Cognitive Subscale (ADAS-Cog)” (Rosen et al., 1984). The Alzheimer Disease Assessment Scale was invented by W. G. Rosen, R. C. Mohs, 1988, Rosen and K. L. Davis, 1984, and the German version was produced by R. Ihl and G. Weyer, Beltz Test 1993. The ADAS was not originally intended to be a diagnostic instrument, but separates dementing people from healthy control subjects of the same age very well. The following criteria can be distinguished in the ADAS: cognitive area, noncogn. area, memory, orientation/praxis, motor function, depression, psychotic symptoms, concentration/cooperation, speech. In the version used here, speech is included in the cognitive area, and thus a max. minus score of 70 is possible. It was possible to show for people with Alzheimer-type dementia that the complete scale increases by 5 to 7 points on average over the course of 12 months, and by 14 points on average over the course of 24 months. The items in the cognitive part are most sensitive in this regard.
# as §1
# aging animals = settings: cited from earlier work
# [3] = test system: patients with HIV dementia; settings: cited from earlier work
# [4] = test system: patients with sclerotic dementia and involutional depressions; settings: 25-50 mg, patent calls findings unconfirmed and misleading; cited from earlier work
# aged rats = settings: high dose, cited from earlier work
# [5] = test system: patients with clinical manifestations of dementing deficits; assay: Global Deterioration Scale (GDS) in dementia patients; format: in vivo, human; settings: GDS 4/5 at start
# From the text: Standardized methods are developed for routine dementia screening, e.g. the mini-mental state examination (MMSE) or the Alzheimer's Disease Assessment Scale (ADAS). Further methods would be: GDS: Global Deterioriation Scale (Reisberg et al., 1982), FAST: Functional Assessment Staging (Reisberg, 1988).
# [6] = Patient 2, Alzheimer's dementia, Aricept 5/10 mg/day for 12 months, before lipoic acid
# [7] = Patient 3, Alzheimer's dementia, Aricept 5 mg/day 13 months plus 600 mg vitamin E
# [8] = Patient 4, Alzheimer's dementia, Aricept 5/10 mg/day 19 months, 300 mg aspirin and 600 mg vitamin E 20 months
# [9] = Patient 1, Alzheimer's dementia, 4 weeks additional 600 mg a-lipoic acid on Aricept
# [10] = Patient 2, additional 600 mg lipoic acid over 7 months on Aricept, Remotiv, vitamin E
# [11] = Patient 3, additional 600 mg lipoic acid on Aricept and vitamin E
# [12] = Patient 4, 600 mg lipoic acid for 8 months on Aricept, aspirin, vitamin E
# [13] = Patient 6, 600 mg lipoic acid on basic therapy
# [14] = Patient 11, dementia plus parkinsonism, 600 mg lipoic acid 4 months on Aricept and Madopar T
# [15] = patients with HIV dementia, administration of α-lipoic acid
# [16] = Patient 8, 600 mg lipoic acid 4 weeks, Aricept 8 weeks
smiles,measurement,setting,value
"COc1cc2c(cc1OC)C(=O)C(CC1CCN(Cc3ccccc3)CC1)C2 (centres unmarked) [Aricept, donepezil]",deterioration of cognitive status in the MMSE,"[1]; Patient 1, Alzheimer's dementia, Aricept 5/10 mg/day for 4 months, before lipoic acid",1 point
same,deterioration in the MMSE score,[1]; [6],7
same,MMSE score deterioration,[1]; [7],2
same,decrease in the MMSE score,[1]; [8],5
same,deterioration in the MMSE score,"[1]; Patient 5, Alzheimer's dementia, Aricept 5/10 mg/day 24 months with Accuzide 20, Akatinol, 600 mg vitamin E",6
same,deterioration in the MMSE score,"[1]; Patient 6, Alzheimer's dementia, Aricept 5/10 mg/day 13 months with aspirin 100, Rökan, 600 mg vitamin E",5
same,deterioration in the MMSE score,"[1]; Patient 7, Alzheimer's dementia, Aricept 5 mg/day 6 months plus 600 mg vitamin E",6
same,MMSE score reached,"[1]; Patient 9, Lewy body dementia, Aricept 5 mg 12 months, Madopar T and Madopar Depot, before lipoic acid",17
same,ADAS score reached (deterioration),[2]; [6],53
same,ADAS score increase,[2]; [7],14
same,decrease of cognitive ability in the ADAS score,[2]; [8],9
CCN(C)C(=O)Oc1cccc([C@H](C)N(C)C)c1 [Exelon],MMSE score decrease,"[1]; Patient 10, frontal cerebral atrophy, Exelon 6 mg/day for 9 months",5
O=C(O)CCCCC1CCSS1 (stereo not drawn) [R(+)-α-lipoic acid],influence on motor functions,aging animals,beneficial influence
C#CCN(C)[C@H](C)Cc1ccccc1 [deprenyl],effects on cognitive performance,"[3]; demented patients, active control drug in the HIV dementia study",confirmed its known beneficial effects
"O=C(O)CCCCC1CCSS1 (stereo not drawn) [α-lipoic acid, 1,2-dithiolane-3-pentanoic acid]",MMSE score improvement,[1]; [9],2
same,improvement in the MMSE score,[1]; [10],1 point
same,MMSE score improvement,[1]; [11],1
same,improvement in the MMSE score,[1]; [12],2
same,MMSE score improvement,"[1]; Patient 5, first 3 months of 600 mg lipoic acid on basic therapy",1
same,course of the dementia (MMSE) since lipoic acid,[1]; [13],no further deterioration
same,improvement in the MMSE score,"[1]; Patient 7, after two months of 600 mg lipoic acid on Aricept and vitamin E",1
same,MMSE score now,"[1]; Patient 8, Alzheimer's dementia, 600 mg lipoic acid 4 weeks, Aricept 8 weeks, score 18 at start of lipoic acid",20
same,improvement in the MMSE score,"[1]; Patient 9, Lewy body dementia, 600 mg lipoic acid on Aricept and Madopar",3
same,improvement in the MMSE score,"[1]; Patient 10, frontal cerebral atrophy, additional 600 mg lipoic acid on Exelon",1
same,MMSE score course,[1]; [14],remained at the same level
same,MMSE score reached,"[1]; Patient 12, frontal cerebral atrophy, 600 mg lipoic acid 4 weeks, Aricept 8 weeks, other drugs, from 16",18
same,manifestations of dementia,[4],improvement of manifestations of dementia
same,effect on the cognitive function,"[3]; patients with HIV dementia, 600 mg α-lipoic acid monotherapy",no effect whatsoever
same,learning,[3]; [15],deterioration in learning
same,verbal learning ability and memory,[3]; [15],declined significantly
same,ADAS score decrease,[2]; [9],6
same,ADAS score reached,"[2]; Patient 1, Alzheimer's dementia, after 4 weeks additional 600 mg a-lipoic acid on Aricept",18
same,improvement in the ADAS score,[2]; [10],11 points
same,ADAS score recovery,[2]; [11],2
same,ADAS score went back,[2]; [12],3 points
same,ADAS score loss,[2]; [13],8
same,ADAS course,"[2]; Patient 7, 600 mg lipoic acid on Aricept and vitamin E",remains constant
same,ADAS score decline,[2]; [16],3
same,ADAS score reached,[2]; [16],35 error points
same,ADAS score course,[2]; [14],remained at the same level
same,ADAS score decrease,"[2]; Patient 12, frontal cerebral atrophy, 600 mg lipoic acid 4 weeks, Aricept 8 weeks",5
same,ADAS score reached,"[2]; Patient 12, frontal cerebral atrophy, 600 mg lipoic acid 4 weeks, Aricept 8 weeks, from 41 points",36 points
same,memory performance,aged rats; aged rats,improvement in memory performance
same,memory performance,aged rats; young animals,not in young animals
same,GDS reached (improved),"[5]; Patient 3, additional 600 mg lipoic acid",4
same,GDS level reached (improved by one level),"[5]; Patient 5, 600 mg lipoic acid",4
same,GDS reached (improved),"[5]; Patient 6, 600 mg lipoic acid",4
